# Data as given in US20130136839A1, “Taste-Masking Compositions, Sweetener Compositions and Consumable Product Compositions Containing the Same” (Nutrinova Nutrition Specialties & Food Ingredients GmbH, priority 2011, published 2013).
# Experiments:
# Format in all cases: in vivo, human
# [1] = system: panel of 4 trained sensory evaluators; assay: Taste and spit assay, descriptive taste impression versus base samples, panel of 4 trained sensory evaluators (Examples 3 to 31); conditions: acesulfame K 350 wppm
# Experimental: (§1) All tests were conducted under controlled and standardized conditions.
# (§2) The samples were prepared by a trained laboratory assistant.
# 35 ml of the samples were served at room temperature in clear plastic cups.
# The following samples comprising a composition of the invention were tested for their ability to improve the taste of artificial sweeteners.
# All samples were tested in duplicate and evaluated at least 3 different concentrations in comparison to 3 base samples (samples 1 to 3).
# The panelists were asked to evaluate and to describe the taste impression of the samples 4 to 13 containing a sweetener composition comprising acesulfame potassium, sucralose and a composition of the invention, e.g. bitter aftertaste, creaminess, fullness and character of the sweeteners in each case in comparison to the base samples 1 to 3.
# The results of the taste and spit assay are based in each case on a qualitative evaluation of the differences between the samples.
# [2] = system: panelists; assay: Dilution of naringin in water until its taste is no longer detectable (Example 34); conditions: diluted in water
# Excerpt: The method comprises the step of selecting at least one flavoring. The flavorings may be as discussed herein. The method may further comprise the step of diluting the at least one flavoring with a diluent to form a diluted composition to determine a flavor threshold level at which the flavor of the flavoring is not detectable, e.g., by taste, in the diluted composition. In order to make this determination, the diluted composition may be sampled, e.g., tasted, at various stages of dilution. As the diluted composition becomes more dilute, the flavor of the flavorant will become less recognizable or identifiable. The flavor threshold level is the point at which the flavor of the flavoring is no longer recognized or identified by a taster or taste panel. The method further comprises the step of adding at least one flavoring to a sweetener and/or sweetness enhancer to form a sweetener composition. The sweeteners and/or sweetness enhancers are discussed above. The sweeteners and/or sweetness enhancers may have an unpleasant off-taste associated therewith, as discussed above. Preferably, the flavoring is added to the sweetener and/or the sweetness enhancer at a level at or below the flavor threshold level.
# Naringin was diluted in water until the diluted solution reached a concentration of 1.6 wppm. At this concentration, its taste was no longer detectable in water.
# [3] = system: panelists; assay: Naringin at non-detectable concentration tested in acesulfame K and acesulfame K/sucralose solutions (Example 34); conditions: naringin 1.6 wppm (not detectable) in acesulfame K (350 ppm) solution and in acesulfame K (350 wppm)/sucralose (80 wppm) solution; all panelists
# Excerpt: The method further comprises the step of determining whether the at least one flavoring, when present in the sweetener composition at or below the flavor threshold level, is capable of modifying, masking, reducing and/or suppressing the unpleasant off-taste of the sweetener/sweetness enhancer in the sweetener composition. This determination may be made by employing suitable methods known in the art. For example the determination may be made by utilizing a taster or a taste panel. The taster may sample the prepared sweetener composition and make a determination as to whether the off-taste has been modified, masked, reduced, and/or suppressed. If so, then the particular flavoring is capable of modifying, masking, reducing, and/or suppressing unpleasant off-tastes. Preferably, the flavor of the flavoring is not detectable, e.g., by taste, in the sweetener composition, the sweetness enhancer composition, and/or the consumable product composition.
# Then, naringin was tested at this concentration in an aceslfame K (350 ppm) solution and in an acesulfame K (350 wppm)/sucralose (80 wppm) solution.
# [4] = system: panel of 11 trained sensory evaluators; assay: Taste and spit assay with regard to sweetness in the aftertaste, panel of 11 trained sensory evaluators (Example 2); conditions: aqueous samples; 35 ml at 6.0-8.0 °C; aftertaste after 2 minutes; 11 panelists; qualitative, FIG. 2
# Experimental: Air was constantly exchanged.
# as §2
# (§3) The panel used the sweetness scale anchored by three concentrations of sucrose:
# (§4) Sweetness was assessed with the 1st sip (max. 30 ml, min of 15 ml) and scored in the aftertaste (after 2 minutes).
# (§5) All samples were tested in duplicate.
# [5] = system: panel of 4 trained sensory evaluators; assay: Taste and spit assay with regard to sweetness in the aftertaste, panel of 4 trained sensory evaluators (Example 33); conditions: 35 ml at 6.0-8.0 °C; aftertaste after 2 minutes; all 4 panelists; qualitative
# Experimental: as §1, §2, §3, §4, §5
# The samples with the same composition as in Example 1 have been assessed: […]
# [6] = composition with amino acids: benzaldehyde 0.02 wppm in sample 13 (sucralose 75 wppm), quinine 0.01 wppm in sample 32 (sucralose 80 wppm)
# [7] = composition without amino acids: benzaldehyde 0.02 wppm in sample 12, quinine 0.01 wppm in sample 31, sucralose 80 wppm
compound,measurement,setting,value
"O=Cc1ccccc1 [Benzaldehyde, benzaldehyde]",further effect added to the composition by the substance used below its threshold,[1]; [6],did not add any further effect to the composition of the invention
same,further effect added to the composition by the substance used below its threshold,[1]; [7],did not add any further effect to the composition of the invention
C[C@@H]1O[C@@H](O[C@H]2[C@H](Oc3cc(O)c4c(c3)O[C@H](c3ccc(O)cc3)CC4=O)O[C@H](CO)[C@@H](O)[C@@H]2O)[C@H](O)[C@H](O)[C@H]1O [Naringin],concentration at which its taste was no longer detectable in water,[2],1.6 wppm
same,effect on the bitter aftertaste of acesulfame K,[3],improve the bitter aftertaste of acesulfame K
"C=C[C@H]1C[N@@]2CC[C@H]1C[C@H]2[C@H](O)c1ccnc2ccc(OC)cc12 [Quinine, quinine]",further effect added to the composition by the substance used below its threshold,[1]; [6],does not add anything to the effects of the composition
same,further effect added to the composition by the substance used below its threshold,[1]; [7],does not add anything to the effects of the composition
delta-undecalactone,taste contribution of the lactone to the total composition,"[1]; delta-undecalactone 0.0388 wppm in sample 14 with naringin, 4-methoxy salicylaldehyde, syringaldehyde, whiskey lactone, sucralose 80 wppm, all panelists","not being too volatile and as adding a creamy taste, and as improving the total composition"
saccharose [Sample 1],sweetness in the aftertaste,[4],less sweet in the aftertaste than acesulfame potassium and sucralose
same,sweetness in the aftertaste,[5],less sweet in the aftertaste compared to acesulfame potassium and sucralose
